From US5763435A, “Sulfate conjugates of ursodeoxycholic acid, and their beneficial use in inflammatory disorders” (priority 1995, dated 1998)
Entries after “also recorded” stand apart in the source; their conditions may differ.

How the values were obtained:
[1] = system: fecal bile acids; assay: Fecal bile acid excretion after oral administration; assay type: in vivo, Sprague-Dawley rats; conditions: for Total fecal bile acid excretion: pooled feces day 4; for Fecal lithocholate/deoxycholate ratio (in words) / Fecal lithocholic acid excretion (in words): vs control
Method: Male Sprague-Dawley rats (Harlan Sprague-Dawley, Inc., Indianapolis, Ind.), weighing 210-290 g, were maintained on a 12-hour light-dark cycle and fed standard laboratory chow ad libitum for 3 days. The animals were then transferred to metabolic cages in which they were housed individually and fed the same diet. UDCA, UDCA 3-sulfate, UDCA 7-sulfate, and UDCA 3,7-disulfate were administered by gavage at a dose of 250 mg/day for 4 consecutive days. Each group comprised 3-6 rats. Body weights of the animals were measured each day. On day 5, the animals were killed by exsanguination under ether anesthesia. Plasma was collected and frozen at -20° C. The liver was removed, rinsed in normal saline, and flash-frozen in liquid nitrogen. Urine and feces were collected every 24 hours and frozen at -20° C. All animals received humane care in compliance with the "Guide for the Care and Use of Laboratory Animals" prepared by the National Academy of Sciences (National Institutes of Health publication no. 86-23, revised in 1985).
Intestinal contents were weighed and dissected into small pieces. In each group, feces (100 mg) from all animals were pooled on day 4 of the study and then ground into a fine paste. All samples were sonicated and sequentially refluxed in 80% methanol for 2 hours and chloroform/methanol (1:1) for 1 hour. Samples were taken to dryness, and the dried extracts were resuspended in 80% methanol (20 mL). Fractions of the methanolic extract (1/40 of intestinal contents and 1/20 of feces samples) were removed and the internal standard nordeoxycholic acid (10 μg) was added. This extract was diluted with 0.01 mol/L acetic acid (20 mL) and passed first through a column of Lipidex 1000 (bed size, 4×1 cm; Packard Instrument Co., Groningen, The Netherlands) and then through a Bond-Elut C18, cartridge (Analytichem, Harbor City, Calif.). Bile acids were recovered by elution of the Lipidex 1000 column and the Bond-Elut cartridge with methanol (20 mL and 5 mL, respectively), and the combined extracts were taken to dryness. Unconjugated bile acids were isolated and separated from neutral sterol and conjugated bile acids by lipophilic anion exchange chromatography on diethylaminohydroxypropyl Sephadex LH-20 (Lipidex-DEAP; Package Instrument Co.). Recovery of unconjugated bile acids was achieved by elution with 0.1 mol/L acetic acid in 72% ethanol (7 mL) followed by evaporation of the solvents. Total conjugated bile acids were recovered with 9 mL of 0.3 mol/L acetic acid in 72% ethanol, pH 9.6. Salts were removed by passage through a Bond-Elut C18 cartridge after addition of nordeoxycholic acid (10 μg), and conjugated bile acids were recovered by elution with 5 mL of methanol. Solvolysis was performed in a mixture of methanol (1 mL), distilled tetrahydrofuran (9 mL), and 1 mol/L trifluoracetic acid in dioxane (0.1 mL) and heated to 45° C for 2 hours. After solvolysis, unconjugated bile acids were isolated by chromatography on Lipidex-DEAP. Methyl ester derivatives were prepared by dissolving the sample in methanol (0.3 mL) and reacting with 2.7 mL of freshly distilled ethereal diazomethane. After evaporation of the reagents, the methyl ester derivatives were converted to trimethylsilyl ethers by the addition of […] of Tri-Sil reagent (Pierce Chemicals, Rockford, Ill.). A column of Lipidex 5000 (Packard Instrument Co.) was used to remove derivatizing reagents and to purify the sample.
GC-MS analysis was performed using a Finnigan 4635 mass spectrometer (Finnigan Inc., San Jose, Calif.) that housed an identical gas chromatography column operated under the same conditions. Electron ionization (70 eV) mass spectra were recorded over the mass range of 50-800 daltons by repetitive scanning of the eluting components. […]

[2] = system: bile acids secreted in bile; assay: Biliary bile acid composition during i.v. infusion (GC-MS); assay type: in vivo, Sprague-Dawley rats; conditions: for Further hydroxylation (in words): GC-MS of bile
Method: Adult male Sprague-Dawley rats (body weight 200-230 g) were anesthetized by an intraperitoneal injection of pentobarbital (Nembutal, 7.5 mg/100 g body weight), and maintained under sedation by additional doses. The right jugular vein and the common bile duct were cannulated using PE-50 polyethylene tubing (Clay-Adams, Parsippany, N.J.). Body temperature was maintained throughout the experiment at 37° C. using a rectal probe and a thermostatically controlled heating pad (Harvard Apparatus Co., Inc., Millis, Mass.). Saline was infused at a rate of 1.0 ml/h using a Harvard pump (Harvard Apparatus Co., Inc.) into the jugular vein for a control period of 2h. After collecting two 10 minute bile samples for base-line analysis, the bile acids were individually infused intravenously (i.v.) for 30 minutes in stepwise increasing doses (0.5, 1.0, and 2.0 μmol/min/100 g body weight). Bile acid solutions were prepared in 3% human albumin in 0.45% saline. Six animals were used for each experiment and bile was collected every 10 minutes into preweighed tubes. At the end of the experiment, blood was obtained by cardiac puncture, and urine was obtained by aspiration of the bladder. All biological specimens were stored at -20° C. This animal study protocol (#1 B 10044) was approved by the Bioethics committee of the Children's Hospital Medical Center (Cincinnati, Ohio).
GC-MS was carried out on either a VG Autospec Q magnetic sector instrument or a Finnigan 4635 quadruple GC-MS-DS instrument housing identical GC columns and operated under the same chromatographic conditions. Electron ionization (70 eV) mass spectra were recorded over the mass range 50 to 1000 Da/e by repetitive scanning of the eluting components.
For the determination of hepatic biotransformation of the infused bile acid, bile collections from the six animal were pooled and biliary bile acids were determined by GC-MS after extraction, solvolysis, hydrolysis, and derivatization. Quantification of bile acids was achieved using GC, by comparing the peak height response of the individual bile acid with the peak height response obtained from the internal standard, nordeoxycholic acid added to the initial sample of bile. Identification of a bile acid was made on the basis of the retention index relative to a homologous series of n-alkanes, referred to as the methylene unit value (MU) and the fragmentation pattern of the mass spectrum was compared with authentic standards. A list of over 100 mass spectra of authentic bile acid standards and retention indices was recently compiled as a reference source (Lawson, A. M., et al, Mass spectrometry of bile acids, The Bile Acids, Vol. 4, Methods and Applications, pp. 167-267 (1988)).

## C[C@H](CCC(=O)O)[C@H]1CC[C@H]2[C@@H]3[C@@H](O)C[C@@H]4C[C@H](OS(=O)(=O)O)CC[C@]4(C)[C@H]3CC[C@]12C [UDCA-3S, ursodeoxycholic acid 3-sulfate]
[1]
  Increase of fecal lithocholic acid/deoxycholic acid ratio vs normal rat feces: 11 fold
  Total fecal bile acid excretion: 10.70 mg/g feces
  Fecal lithocholate/deoxycholate ratio (in words): markedly increased
  Fecal lithocholic acid excretion (in words): large increase in the fecal lithocholic acid concentration
[2]; 20-30 mins
  Relative % composition in bile: CA: 36.0%
  Relative % composition in bile: CDCA: 4.6%
  Relative % composition in bile: DCA: 2.5%
  Relative % composition in bile: MCA: 4.9%
  Relative % composition in bile: UDCA: 33.3%
  Relative % composition in bile: others: 5.2%
  Relative % composition in bile: α-MCA: 6.2%
  Relative % composition in bile: β-MCA: 12.4%
[2]; 50-60 mins
  Relative % composition in bile: CA: 14.9%
  Relative % composition in bile: CDCA: 1.9%
  Relative % composition in bile: DCA: 1.0%
  Relative % composition in bile: MCA: 1.5%
  Relative % composition in bile: UDCA: 70.6%
  Relative % composition in bile: others: 11.5%
  Relative % composition in bile: α-MCA: 2.7%
  Relative % composition in bile: β-MCA: 7.4%
[2]; 80-90 mins
  Relative % composition in bile: CA: 18.2%
  Relative % composition in bile: CDCA: 2.5%
  Relative % composition in bile: DCA: 1.3%
  Relative % composition in bile: MCA: 2.0%
  Relative % composition in bile: UDCA: 67.7%
  Relative % composition in bile: others: 11.2%
  Relative % composition in bile: α-MCA: 3.0%
  Relative % composition in bile: β-MCA: 5.2%
[2]
  Further hydroxylation (in words): metabolized by further hydroxylation, most probably in the side-chain

## C[C@H](CCC(=O)O)[C@H]1CC[C@H]2[C@@H]3[C@@H](OS(=O)(=O)O)C[C@@H]4C[C@H](O)CC[C@]4(C)[C@H]3CC[C@]12C [UDCA-7S, ursodeoxycholic acid 7-sulfate]
[1]
  Fecal concentration of total UDCA (in words): markedly greater than that found in the feces of animals administered UDCA or UDCA 3-sulfate
  Form of UDCA excreted in feces: excreted in feces virtually unchanged
  Total fecal bile acid excretion: 12.65 mg/g feces
  Fecal lithocholate/deoxycholate ratio (in words): no change in the lithocholate/deoxycholate ratio
[2]; 20-30 mins
  Relative % composition in bile: CA: 20.2%
  Relative % composition in bile: CDCA: 1.7%
  Relative % composition in bile: DCA: 2.3%
  Relative % composition in bile: MCA: 1.3%
  Relative % composition in bile: UDCA: 61.3%
  Relative % composition in bile: α-MCA: 2.5%
  Relative % composition in bile: β-MCA: 10.7%
[2]; 50-60 mins
  Relative % composition in bile: CA: 7.7%
  Relative % composition in bile: CDCA: 0.6%
  Relative % composition in bile: DCA: 0.7%
  Relative % composition in bile: MCA: 0.6%
  Relative % composition in bile: UDCA: 83.6%
  Relative % composition in bile: α-MCA: 0.9%
  Relative % composition in bile: β-MCA: 5.9%
[2]; 80-90 mins
  Relative % composition in bile: CA: 9.9%
  Relative % composition in bile: CDCA: 0.7%
  Relative % composition in bile: DCA: 1.2%
  Relative % composition in bile: MCA: 0.8%
  Relative % composition in bile: UDCA: 78.8%
  Relative % composition in bile: α-MCA: 1.3%
  Relative % composition in bile: β-MCA: 7.4%
[2]
  Further hydroxylation (in words): neither UDCA-7S nor UDCA-disulfatewere hydroxylated

## C[C@H](CCC(=O)O)[C@H]1CC[C@H]2[C@@H]3[C@@H](O)C[C@@H]4C[C@H](O)CC[C@]4(C)[C@H]3CC[C@]12C [UDCA, 3 alpha, 7 beta-dihydroxy-5 beta-cholan-24oic acid, reference compound]
[1]
  Fecal deoxycholic acid (in words): increase in deoxycholic acid in the feces
  Form of UDCA excreted in feces: almost exclusively found in the unconjugated form
  Increase of fecal lithocholic acid/deoxycholic acid ratio vs normal rat feces: more than 20 fold
  Total fecal bile acid excretion: 14.85 mg/g feces
  Fecal lithocholate/deoxycholate ratio (in words): markedly increased
  Fecal lithocholic acid excretion (in words): increased markedly from control values; also recorded: large increase in the fecal lithocholic acid concentration
[2]; 20-30 mins
  Relative % composition in bile: CA: 49.0%
  Relative % composition in bile: CDCA: 3.0%
  Relative % composition in bile: DCA: 1.0%
  Relative % composition in bile: MCA: 1.0%
  Relative % composition in bile: UDCA: 51.9%
  Relative % composition in bile: others: 14.6%
  Relative % composition in bile: α-MCA: 4.3%
  Relative % composition in bile: β-MCA: 17.2%
[2]; 50-60 mins
  Relative % composition in bile: CA: 21.4%
  Relative % composition in bile: CDCA: 2.5%
  Relative % composition in bile: DCA: 0.5%
  Relative % composition in bile: MCA: 0.5%
  Relative % composition in bile: UDCA: 65.9%
  Relative % composition in bile: others: 13.7%
  Relative % composition in bile: α-MCA: 3.9%
  Relative % composition in bile: β-MCA: 12.6%
[2]; 80-90 mins
  Relative % composition in bile: CA: 9.8%
  Relative % composition in bile: CDCA: 1.5%
  Relative % composition in bile: DCA: 0.7%
  Relative % composition in bile: UDCA: 79.5%
  Relative % composition in bile: others: 11.9%
  Relative % composition in bile: α-MCA: 6.4%
  Relative % composition in bile: β-MCA: 9.9%
[2]
  Further hydroxylation (in words): metabolized by further hydroxylation, most probably in the side-chain

## C[C@H](CCC(=O)O)[C@H]1CC[C@H]2[C@@H]3[C@@H](OS(=O)(=O)O)C[C@@H]4C[C@H](OS(=O)(=O)O)CC[C@]4(C)[C@H]3CC[C@]12C [UDCA-DS, ursodeoxycholic acid 3,7-disulfate]
[1]
  Fecal concentration of total UDCA (in words): markedly greater than that found in the feces of animals administered UDCA or UDCA 3-sulfate
  Form of UDCA excreted in feces: excreted in feces virtually unchanged
  Total fecal bile acid excretion: 10.88 mg/g feces
  Fecal lithocholate/deoxycholate ratio (in words): no change in the lithocholate/deoxycholate ratio
[2]; 20-30 mins
  Relative % composition in bile: CA: 24.5%
  Relative % composition in bile: CDCA: 2.5%
  Relative % composition in bile: DCA: 2.1%
  Relative % composition in bile: MCA: 3.2%
  Relative % composition in bile: UDCA: 54.6%
  Relative % composition in bile: α-MCA: 3.4%
  Relative % composition in bile: β-MCA: 9.7%
[2]; 50-60 mins
  Relative % composition in bile: CA: 15.3%
  Relative % composition in bile: CDCA: 0.7%
  Relative % composition in bile: DCA: 1.2%
  Relative % composition in bile: MCA: 2.2%
  Relative % composition in bile: UDCA: 70.7%
  Relative % composition in bile: α-MCA: 2.2%
  Relative % composition in bile: β-MCA: 6.7%
[2]; 80-90 mins
  Relative % composition in bile: CA: 10.6%
  Relative % composition in bile: CDCA: 0.9%
  Relative % composition in bile: MCA: 1.4%
  Relative % composition in bile: UDCA: 79.1%
  Relative % composition in bile: α-MCA: 2.6%
  Relative % composition in bile: β-MCA: 6.5%
[2]
  Further hydroxylation (in words): neither UDCA-7S nor UDCA-disulfatewere hydroxylated
